Molecules are shown by their SMILES. ≈ marks a conversion by molar mass, not a printed value. Where “and” joins values, the source holds several entries; their conditions need not be identical. Equal entries are not always repeated.

Among the test systems are Pseudomonas aeruginosa; Staphylococcus aureus; Theileria equi; Aerococcus viridans; Bacillus megaterium; Enterococcus faecalis; Escherichia coli 1106; Escherichia coli D22; Escherichia coli D31; Micrococcus luteus; Pseudomonas alginovora; Salmonella typhimurium; Citrobacter freundii; Enterobacter cloacae; Enterococcus faecium; Escherichia coli; Klebsiella aerogenes; Klebsiella oxytoca; Proteus mirabilis; Proteus vulgaris; Serratia marcescens; Streptococcus pneumoniae.

What all share (test): ≥ marks a high value that may be exact or a test limit, other limits are often not marked, values filed in µg/mL are converted to µM
Assay [1] concerns Streptococcus gordonii DL1.
For assay [2], the system named is Streptococcus mutans UA159.
Assay [3] concerns Streptococcus mutans comD.
For assay [4], the system named is Streptococcus sanguinis NY101.
In assay [5] the test system is Escherichia coli O157:H7 ATCC 35150.
Assay [6] concerns Salmonella enterica serovar Typhimurium.
The test system of assay [7] is Escherichia coli PCM 2057.
Assay [8] relates to Staphylococcus aureus PCM 1944.
The subject of assay [9] is Bacillus subtilis KCCM 11495.
For assay [10], the system named is Escherichia coli KCCM 11569.
Assay [11] has as its system Pseudoalteromonas carrageenovora ATCC 43555.
The test system of assay [12] is Acinetobacter calcoaceticus.
The subject of assay [13] is Enterococcus faecalis ATCC 29212.
Assay [14] deals with Klebsiella pneumoniae ATCC 700603.
Assay [15] concerns Pseudomonas aeruginosa ATCC 27853.
For assay [16], the system named is Staphylococcus epidermidis ATCC 14990.
In assay [17] the test system is Staphylococcus epidermidis.
Assay [18] relates to Staphylococcus haemolyticus.
The test system of assay [19] is Streptococcus agalactiae ATCC 27956.
Assay [20] deals with Streptococcus oralis ATCC 35037.
Assay [21] concerns Streptococcus pneumoniae ATCC 49619.

On to `CC(C)C[C@H](NC(=O)[C@H](CCCN=C(N)N)NC(=O)[C@H](Cc1ccccc1)NC(=O)[C@H](Cc1ccccc1)NC(=O)[C@@H](N)[C@@H](C)O)C(=O)N[C@@H](Cc1ccccc1)C(=O)N[C@@H](CC(N)=O)C(=O)N[C@@H](CCCN=C(N)N)C(=O)N[C@@H](CO)C(=O)NCC(=O)NCC(=O)NCC(=O)N[C@@H](Cc1ccccc1)C(=O)N[C@@H](CCCCN)C(=O)N[C@@H](CCCCN)C(=O)N[C@@H](Cc1ccccc1)C(=O)N[C@@H](Cc1c[nH]c2ccccc12)C(=O)N[C@@H](CCCCN)C(=O)N[C@@H](Cc1c[nH]c2ccccc12)C(=O)N[C@@H](Cc1ccccc1)C(=O)N[C@@H](CCCN=C(N)N)C(=O)N[C@@H](CCCN=C(N)N)C(=O)N[C@@H](Cc1ccccc1)C(=O)O` [TFFRLFNRSGGGFKKFWKWFRRF], for which the minimal inhibitory concentration (MIC) in assay [1] was found to be 10 µM (≈ 30.2 µg/mL); in assay [2], 2.5 µM (≈ 7.54 µg/mL); in [3], 2.5 µM (≈ 7.54 µg/mL); in [4] it was 20 µM (≈ 60.3 µg/mL).
For the compound `CC[C@H](C)[C@H](NC(=O)CNC(=O)[C@H](C)NC(=O)[C@H](CS)NC(=O)[C@H](Cc1ccc(O)cc1)NC(=O)CNC(=O)CNC(=O)[C@H](CCCN=C(N)N)NC(=O)[C@H](CCCN=C(N)N)NC(=O)CNC(=O)[C@@H](NC(=O)[C@@H](N)CO)[C@@H](C)CC)C(=O)N[C@H](C(=O)N[C@@H](CCCCN)C(=O)N[C@@H](CCC(N)=O)C(=O)N[C@H](C(=O)N[C@@H](CS)C(=O)N[C@H](C(=O)N[C@@H](CS)C(=O)N[C@@H](Cc1ccc(O)cc1)C(=O)N[C@@H](CCCN=C(N)N)C(=O)O)[C@@H](C)O)[C@@H](C)O)[C@@H](C)CC` [SIGRRGGYCAGIIKQTCTCYR], the MIC in assay [5] was 2 µM (≈ 4.61 µg/mL); against Pseudomonas aeruginosa it was 2 µM (≈ 4.61 µg/mL); in assay [6] it was 10 µM (≈ 23.1 µg/mL); in the assay with Staphylococcus aureus, 2 µM (≈ 4.61 µg/mL); in the assay with Theileria equi it was 5 µM (≈ 11.5 µg/mL).
For the compound `CC[C@H](C)[C@H](N)C(=O)NCC(=O)N[C@H]1CSSC[C@@H](C(=O)N[C@@H](Cc2ccccc2)C(=O)N[C@H](C(=O)N[C@@H](CCCCN)C(N)=O)C(C)C)NC(=O)[C@@H]2CCCN2C(=O)[C@H](CCCN=C(N)N)NC(=O)[C@@H]2CCCN2C(=O)[C@@H]2CCCN2C(=O)[C@H]([C@@H](C)CC)NC(=O)[C@H](CO)NC(=O)[C@H](CCCCN)NC(=O)[C@H]([C@@H](C)O)NC(=O)[C@H](Cc2c[nH]c3ccccc23)NC1=O` [IGCWTKSIPPRPCFVK], the MIC in [7] and in assay [8] was at least 546 µM throughout.
On to `CC(C)C[C@H](NC(=O)[C@@H](NC(=O)CNC(=O)[C@H](CCCCN)NC(=O)[C@H](C)NC(=O)[C@H](CS)NC(=O)[C@H](CC(N)=O)NC(=O)[C@H](CC(C)C)NC(=O)CNC(=O)[C@H](Cc1cnc[nH]1)NC(=O)[C@H](Cc1cnc[nH]1)NC(=O)[C@H](CC(C)C)NC(=O)[C@H](CC(C)C)NC(=O)[C@H](C)NC(=O)[C@H](CC(N)=O)NC(=O)[C@H](CC(C)C)NC(=O)[C@@H](N)Cc1c[nH]c2ccccc12)C(C)C)C(N)=O` [WLNALLHHGLNCAKGVL], for which the MIC came out at 0.538 µM (≈ 1 µg/mL) in [9] and 1.52 µM (≈ 2.83 µg/mL) in assay [10].
Take `C[C@@H]1NC(=O)[C@H](Cc2c[nH]c3ccccc23)NC(=O)CNC(=O)[C@H](CCCCN)NC(=O)[C@@H]2CSSC[C@@H](C(=O)O)NC(=O)[C@H](CCCN=C(N)N)NC(=O)[C@H](Cc3ccccc3)NC(=O)[C@@H]3CSSC[C@H](NC(=O)[C@H](CCCCN)NC(=O)[C@H](C)NC(=O)[C@H](CCCCN)NC(=O)[C@@H]4CSSC[C@H](NC(=O)[C@H](Cc5ccc(O)cc5)NC(=O)[C@H](CSSC[C@H](NC(=O)CN)C(=O)N[C@@H](C)C(=O)N[C@@H](CO)C(=O)N[C@@H](CCCN=C(N)N)C(=O)N4)NC(=O)[C@H](CCCN=C(N)N)NC(=O)CNC(=O)[C@H](CCCN=C(N)N)NC(=O)[C@H](Cc4ccccc4)NC(=O)[C@H](CO)NC(=O)[C@H](C)NC(=O)[C@H](CO)NC1=O)C(=O)N[C@@H](CCCCN)C(=O)N3)C(=O)N[C@@H](C)C(=O)NCC(=O)N[C@@H](CCCN=C(N)N)C(=O)N[C@@H](CCCN=C(N)N)C(=O)N2` [GCASRCKAKCAGRRCKGWASASFRGRCYCKCFRC]: the MIC was determined as 0.849 µM (≈ 3.2 µg/mL) against Aerococcus viridans; 0.849 µM (≈ 3.2 µg/mL) against Bacillus megaterium; 3.54 µM (≈ 13.3 µg/mL) in the assay with Enterococcus faecalis; 10 µM (≈ 37.7 µg/mL) against Escherichia coli 1106; 7.07 µM (≈ 26.7 µg/mL) with Escherichia coli D22; 3.54 µM (≈ 13.3 µg/mL) in the assay on Escherichia coli D31. Also, the MIC is 0.849 µM (≈ 3.2 µg/mL) in the assay on Micrococcus luteus; 3.54 µM (≈ 13.3 µg/mL) in [11]; 3.54 µM (≈ 13.3 µg/mL) in the assay on Pseudomonas alginovora; 10 µM (≈ 37.7 µg/mL) in the assay with Salmonella typhimurium; 7.07 µM (≈ 26.7 µg/mL) in the assay on Staphylococcus aureus.
Turning to `NC(=O)CC[C@H](N)C(=O)N[C@@H](Cc1c[nH]c2ccccc12)C(=O)NCC(=O)N[C@@H](CCCN=C(N)N)C(=O)N[C@@H](CCCN=C(N)N)C(=O)N[C@H]1CSSC[C@@H]2NC(=O)[C@H](Cc3ccc(O)cc3)NC(=O)[C@H](CCCN=C(N)N)NC(=O)[C@H](CCCN=C(N)N)NC(=O)CNC(=O)[C@@H]3CCCN3C(=O)CNC(=O)[C@H](Cc3c[nH]c4ccccc34)NC(=O)CNC(=O)[C@H](CSSC[C@@H](C(=O)O)NC(=O)[C@H](Cc3c[nH]c4ccccc34)NC(=O)[C@H](CCCN=C(N)N)NC(=O)[C@H](CCCN=C(N)N)NC2=O)NC1=O` [QWGRRCCGWGPGRRYCRRWC], the MIC in assay [12] was at least 50.3 µM; against Citrobacter freundii, at least 50.3 µM; in the assay with Enterobacter cloacae, 2.22 µM (≈ 5.65 µg/mL); in assay [13] it was 15.7 µM and 31.5 µM; against Enterococcus faecium it was 1.57 µM (≈ 3.99 µg/mL); in the assay on Escherichia coli it was 2.22 µM (≈ 5.65 µg/mL). Moreover, the MIC with Klebsiella aerogenes was 8.9 µM (≈ 22.6 µg/mL); with Klebsiella oxytoca it was 17.8 µM (≈ 45.2 µg/mL); in assay [14] it was 47.2 µM and 62.9 µM; against Proteus mirabilis it was 25.2 µM (≈ 63.9 µg/mL); with Proteus vulgaris, 17.8 µM (≈ 45.2 µg/mL); in assay [15], 62.9 µM (≈ 160 µg/mL). In addition, the MIC was over 50.3 µM against Pseudomonas aeruginosa; 4.45 µM (≈ 11.3 µg/mL) in the assay with Serratia marcescens; 3.15 µM (≈ 7.99 µg/mL) against Staphylococcus aureus; 31.5 µM and ≥ 62.9 µM in [16]; 8.9 µM (≈ 22.6 µg/mL) in [17]; 4.45 µM (≈ 11.3 µg/mL) in assay [18]. Moreover, the minimal inhibitory concentration (MIC) in [19] is at least 62.9 µM; in assay [20], 31.5 µM and ≥ 78.6 µM; in [21], 7.86 µM and 15.7 µM; in the assay with Streptococcus pneumoniae, 8.9 µM (≈ 22.6 µg/mL).

The record behind these values is DBAASP.
